Converted amounts (≈) assume the structure as drawn.
What was measured:
C-C motif chemokine 2 [1] = molecular target: T1, C-C motif chemokine 2 (Homo sapiens, UniProt P13500); experiment: Inhibition of MCP-1 in LPS-stimulated human whole blood pretreated with compound for 30 mins followed by LPS-stimulation and measured after 10 mins by microplate analysis; format: tissue-based
C-C motif chemokine 2 [2] = molecular target: T1, C-C motif chemokine 2; experiment: Inhibition of MCP-1 in LPS-stimulated human PBMC cells pretreated with compound for 30 mins followed by LPS-stimulation and measured after 10 mins by microplate analysis; format: cell-based
[3] = molecular target: T2, Bromodomain-containing protein 4 (Homo sapiens, UniProt O60885); experiment: Inhibition of BRD4 BD1 (unknown origin) by TR-FRET assay
[4] = molecular target: T2, Bromodomain-containing protein 4; experiment: Inhibition of BRD4 BD2 (unknown origin) by TR-FRET assay
[5] = Lipophilicity, logD of compound at pH 7.4 by HPLC analysis; format: physicochemical; conditions: buffer
[6] = Solubility of compound in simulated lung fluid at pH 6.9; format: physicochemical
[7] = molecular target: T2, Bromodomain-containing protein 4; experiment: Inhibition of halo-tagged BRD4 (unknown origin) expressed in HEK293 cells incubated for 4 hrs by biosensor assay; format: cell-based
[8] = molecular target: T2, Bromodomain-containing protein 4; experiment: Inhibition of histone binding to BRD4 (unknown origin) expressed in HEK293 cells using histone H3.3 as substrate incubated for 18 to 24 hrs by nano-BRET analysis; format: cell-based
[9] = Antiproliferative activity against human NMC 11060 cell assessed as inhibition of cell growth incubated for 72 hrs by cell-titer glo assay; format: functional, cell-based; conditions: NMC 11060, 72 h
HL-60 = experiment: Antiproliferative activity against human HL-60 cells assessed as inhibition of cell growth incubated for 72 hrs by cell-titer glo assay; format: functional, cell-based; conditions: HL-60, 72 h
MV4-11 = experiment: Antiproliferative activity against human MV4-11 cells assessed as inhibition of cell growth incubated for 72 hrs by cell-titer glo assay; format: functional, cell-based; conditions: MV4-11, 72 h

T1 sequence (P13500 whole entry): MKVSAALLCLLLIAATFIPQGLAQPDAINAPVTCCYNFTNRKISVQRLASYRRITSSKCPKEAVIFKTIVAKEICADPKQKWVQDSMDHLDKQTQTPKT

Row | SMILES | IC50 (C-C motif chemokine 2 [1]) | IC50 (C-C motif chemokine 2 [2]) | IC50 [3] | IC50 [4] | logD [5] | pIC50 (C-C motif chemokine 2 [2]; pbmc) | solubility [6] | EC50 [7] | IC50 [8] | IC50 [9] | IC50 (HL-60) | IC50 (MV4-11)
1 | COCC(COC)n1c(-c2cc(C)c(=O)n(C)c2)nc2cc(N3CCOCC3)ccc21 | 25.1 nM | 7.94 nM |  |  |  |  |  |  |  |  |  | 
2 | CC1C(=O)N(C)C=Cc2ccc(OCCCCCOc3ccc4c(c3)C(C)C(=O)N(C)C=C4)cc21 (configuration not stated) | 15800 nM |  | 631 nM | 3980 nM | 7.5 |  |  |  |  |  |  | 
3 | COCc1nc2cnc3cc(-c4c(C)noc4C)c(OC[C@H]4CCNC4)cc3c2n1[C@H](C)c1ccccc1 [GSK778] | 158 nM |  |  |  |  |  |  |  |  |  |  | 
4 | CC(=O)Nc1c(F)cc(C(=O)N[C@H]2CC[C@H](O)CC2)cc1O[C@@H](C)c1ccccc1 [GSK046] |  |  |  |  |  | 7.5 |  |  |  |  |  | 
5 | C[C@H]1C(=O)N(C)C=Cc2cc(CN3CCN(Cc4ccc5c(c4)C=CN(C)C(=O)[C@@H]5C)CC3)ccc21 | 6.31 nM | < 0.2 nM | 15.8 nM | 25.1 nM | 5.43 |  | 465 µg/mL (≈ 959 µM) | 2 nM | 0.501 nM |  |  | 
6 | Cc1sc2c(c1C)C(c1ccc(Cl)cc1)=N[C@@H](CC(=O)OC(C)(C)C)c1nnc(C)n1-2 | 631 nM | 6.31 nM |  |  |  |  |  |  |  |  |  | 
7 | COc1cc2c(cc1OC)[C@@H](C)C(=O)N(C)C=C2 | 1000 nM | 50.1 nM |  |  |  |  |  |  |  |  |  | 
8 | COc1nnc2ccc(N3CCC(c4ccc(OCCN5CCN(C)C(=O)[C@H]5C)cc4)CC3)nn12 [AZD-5153] | 15.8 nM | 3.16 nM | 398 nM | 3160 nM |  |  |  | 15.8 nM | 15.8 nM |  |  | 
9 | C[C@H]1C(=O)N(C)C=Cc2cc(OCCOc3ccc4c(c3)C=CN(C)C(=O)[C@@H]4C)ccc21 | 126 nM | 0.251 nM | 63.1 nM | 31.6 nM | 5.8 |  |  | 1.26 nM | 0.631 nM |  |  | 
10 | C[C@H]1C(=O)N(C)C=Cc2cc(OCCCOc3ccc4c(c3)C=CN(C)C(=O)[C@@H]4C)ccc21 | 50.1 nM | < 2 nM | 100 nM | 39.8 nM | 6.7 |  | < 1 µg/mL | 2.51 nM | 15.8 nM |  |  | 
11 | C[C@H]1C(=O)N(C)C=Cc2cc(OCCCCCOc3ccc4c(c3)C=CN(C)C(=O)[C@@H]4C)ccc21 | 12.6 nM | < 2 nM | 39.8 nM | 20 nM | 7.4 |  | < 1 µg/mL | 7.94 nM | 0.631 nM |  |  | 
12 | C[C@@H]1C(=O)N(C)CCN1CCOc1ccc(C2CCN(c3ccc4nncn4n3)CC2)cc1 | 2000 nM | 200 nM | 25100 nM | 39800 nM |  |  |  | 1000 nM | 398 nM |  |  | 
13 | CC1C(=O)N(C)C=Cc2ccc(OCCCCCCOc3ccc4c(c3)C(C)C(=O)N(C)C=C4)cc21 (configuration not stated) | 3980 nM |  | 3160 nM | ≥ 1580 nM |  |  |  | 1000 nM | > 1000 nM |  |  | 
14 | COc1cc2c(cc1-c1c(C)noc1C)ncc1[nH]c(=O)n([C@H](C)c3ccccn3)c12 | 200 nM | 39.8 nM |  |  |  |  |  |  |  | 631 nM | 126 nM | 
15 | C[C@H]1C(=O)N(C)C=Cc2cc(OCCCCCCCOc3ccc4c(c3)C=CN(C)C(=O)[C@@H]4C)ccc21 | 79.4 nM | < 2 nM | 79.4 nM | 39.8 nM | 8.5 |  |  | 3.98 nM | 1 nM |  |  | 
16 | C[C@H]1C(=O)N(C)C=Cc2cc(OCCCCOc3ccc4c(c3)C=CN(C)C(=O)[C@@H]4C)ccc21 | 5.01 nM | 0.0398 nM | 3.16 nM | 6.31 nM | 7.1 |  | 2 µg/mL (≈ 4.34 µM) | 1.58 nM | 0.316 nM | 0.794 nM | 0.398 nM | 0.501 nM
